Data taken from patent US9834571B2, “Compounds for inhibiting cell proliferation in EGFR-driven cancers” (ARIAD Pharmaceuticals, Inc., priority 2012, dated 2017).

What was measured:
EGFR L858R = EGFR L858R (Homo sapiens, UniProt P00533, L858R); assay: Kinase inhibitory activity against EGFR bearing the L858R mutation; type: biochemical; settings: 10 pt curves, 3 μM top concentration, 10 μM ATP; read-out: IC50 for kinase inhibition, EGFR L858R
In short: (§1)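 Kinase inhibition was measured against native human EGFR and the L858R and L858R/T790M mutants. Compounds were run as 10-point curves in singlicate from a 3 μM top concentration, with 10 μM ATP.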

EGFR L858R/T790M = EGFR L858R/T790M (Homo sapiens, UniProt P00533, L858R/T790M); assay: Kinase inhibitory activity against EGFR bearing the L858R/T790M double mutation; type: biochemical; settings: 10 pt curves, 3 μM top concentration, 10 μM ATP; read-out: IC50 for kinase inhibition, EGFR L858R T790M
In short: as §1

[1] = biological target: T1, BaF3 cells expressing the target EGFR mutations (Homo sapiens, UniProt P00533, T790M, cells depend on it, form not given); assay: Antiproliferative activity (MTT) against BaF3 cells expressing the target EGFR mutations; type: cell-based; settings: BAF3 EGFR DEL T790M PURO POOL cells, read-out: IC50, BAF3 EGFR DEL T790M PURO POOL
T1 construct: IC50, BAF3 EGFR DEL T790M PURO POOL; other: BAF3 EGFR DEL T790M PURO POOL cells, MTT; other: BAF3 EGFR DEL T790M PURO POOL cells; MTT
In short: (§2)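 Antiproliferative effect was measured by MTT in BaF3 cells engineered to express mutant EGFR, with wildtype-EGFR BaF3 cells as the control line.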

[2] = biological target: T2, BaF3 cells expressing the target EGFR mutations (Homo sapiens, UniProt P00533, T790M/L858R, cells depend on it); assay: as above; type: cell-based; settings: BAF3 EGFR L858R-T790M PURO POOL cells, read-out: IC50, BAF3 EGFR L858R-T790M PURO POOL
T2 construct: IC50, BAF3 EGFR L858R-T790M PURO POOL; other: BAF3 EGFR L858R-T790M PURO POOL cells, MTT; IC50, BAF3 EGFR L858R-T790M PURO POOL; other: BAF3 EGFR L858R-T790M PURO POOL cells; MTT
In short: as §2

[3] = biological target: human EGFR (native sequence) (Homo sapiens, UniProt P00533); assay: Kinase inhibitory activity against human EGFR (native sequence); type: biochemical; settings: 10 pt curves, 3 μM top concentration, 10 μM ATP; read-out: IC50 for kinase inhibition, EGFR
In short: as §1

[4] = system: BaF3 cells expressing wildtype EGFR; assay: Antiproliferative activity (MTT) against control BaF3 cells expressing wildtype EGFR; type: cell-based; settings: Mus musculus, BAF3 parental cells
In short: as §2

EGFR L858R/T790M, sequence (P00533 25-1210 T790M/L858R): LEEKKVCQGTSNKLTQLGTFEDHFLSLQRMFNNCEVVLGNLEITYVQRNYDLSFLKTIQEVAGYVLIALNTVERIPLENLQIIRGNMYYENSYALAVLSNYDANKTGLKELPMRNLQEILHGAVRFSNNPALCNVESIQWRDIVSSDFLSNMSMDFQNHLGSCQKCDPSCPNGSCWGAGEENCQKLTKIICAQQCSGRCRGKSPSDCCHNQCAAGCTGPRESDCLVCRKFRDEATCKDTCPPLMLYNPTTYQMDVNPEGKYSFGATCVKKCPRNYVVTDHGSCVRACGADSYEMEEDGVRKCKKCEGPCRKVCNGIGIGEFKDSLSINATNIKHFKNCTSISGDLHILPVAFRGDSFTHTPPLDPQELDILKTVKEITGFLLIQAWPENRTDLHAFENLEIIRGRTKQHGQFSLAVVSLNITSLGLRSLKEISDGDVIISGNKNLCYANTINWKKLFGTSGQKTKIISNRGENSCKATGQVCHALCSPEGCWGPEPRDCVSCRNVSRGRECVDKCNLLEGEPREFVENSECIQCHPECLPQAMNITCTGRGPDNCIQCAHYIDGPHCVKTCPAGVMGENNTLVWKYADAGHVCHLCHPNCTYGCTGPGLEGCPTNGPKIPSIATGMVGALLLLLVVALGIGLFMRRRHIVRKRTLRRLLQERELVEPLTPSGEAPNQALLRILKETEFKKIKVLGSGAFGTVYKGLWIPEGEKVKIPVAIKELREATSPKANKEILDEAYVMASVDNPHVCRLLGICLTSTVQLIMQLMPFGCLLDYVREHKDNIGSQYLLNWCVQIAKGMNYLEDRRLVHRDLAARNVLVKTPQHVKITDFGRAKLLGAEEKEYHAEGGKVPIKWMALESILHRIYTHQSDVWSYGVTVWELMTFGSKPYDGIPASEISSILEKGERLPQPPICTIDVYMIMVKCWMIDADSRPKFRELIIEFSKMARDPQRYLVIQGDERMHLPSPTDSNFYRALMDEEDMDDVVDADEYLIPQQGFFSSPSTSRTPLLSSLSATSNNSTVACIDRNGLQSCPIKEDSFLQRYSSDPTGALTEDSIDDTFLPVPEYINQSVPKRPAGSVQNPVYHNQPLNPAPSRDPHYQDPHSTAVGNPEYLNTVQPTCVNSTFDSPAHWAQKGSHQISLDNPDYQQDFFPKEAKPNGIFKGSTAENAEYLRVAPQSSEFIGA
T2 sequence (P00533 whole entry T790M/L858R): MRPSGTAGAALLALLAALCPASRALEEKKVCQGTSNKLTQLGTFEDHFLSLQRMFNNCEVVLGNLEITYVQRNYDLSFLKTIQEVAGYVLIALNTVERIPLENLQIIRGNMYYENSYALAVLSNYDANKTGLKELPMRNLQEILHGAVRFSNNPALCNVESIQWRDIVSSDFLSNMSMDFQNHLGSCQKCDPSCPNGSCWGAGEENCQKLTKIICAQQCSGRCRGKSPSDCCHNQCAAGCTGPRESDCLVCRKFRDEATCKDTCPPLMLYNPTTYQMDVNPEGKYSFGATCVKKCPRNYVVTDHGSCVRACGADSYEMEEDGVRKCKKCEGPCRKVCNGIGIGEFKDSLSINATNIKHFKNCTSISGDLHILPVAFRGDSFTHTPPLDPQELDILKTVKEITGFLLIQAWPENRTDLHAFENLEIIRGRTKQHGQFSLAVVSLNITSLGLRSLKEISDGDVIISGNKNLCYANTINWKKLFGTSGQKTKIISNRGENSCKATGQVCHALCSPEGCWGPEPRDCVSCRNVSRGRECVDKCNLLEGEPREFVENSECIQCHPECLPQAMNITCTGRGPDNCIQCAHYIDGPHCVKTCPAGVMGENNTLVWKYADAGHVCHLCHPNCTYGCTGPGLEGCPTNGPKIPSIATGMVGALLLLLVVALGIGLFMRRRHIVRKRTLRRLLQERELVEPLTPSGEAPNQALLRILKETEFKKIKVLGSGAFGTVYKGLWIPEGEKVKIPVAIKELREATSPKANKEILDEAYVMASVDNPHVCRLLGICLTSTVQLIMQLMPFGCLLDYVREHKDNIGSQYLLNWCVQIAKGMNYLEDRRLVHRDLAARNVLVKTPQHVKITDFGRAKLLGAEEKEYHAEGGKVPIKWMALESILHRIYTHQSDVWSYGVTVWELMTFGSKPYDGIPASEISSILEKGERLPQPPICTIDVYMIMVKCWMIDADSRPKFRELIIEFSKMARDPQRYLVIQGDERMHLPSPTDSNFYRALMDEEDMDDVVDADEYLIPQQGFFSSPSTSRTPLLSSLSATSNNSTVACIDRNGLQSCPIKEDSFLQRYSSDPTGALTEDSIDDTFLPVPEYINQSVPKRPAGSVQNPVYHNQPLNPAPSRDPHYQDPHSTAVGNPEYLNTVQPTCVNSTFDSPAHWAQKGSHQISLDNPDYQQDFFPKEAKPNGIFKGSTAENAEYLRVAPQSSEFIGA
T1 sequence (P00533 with tags, fused parts or gaps DEL746-750/T790M, form open): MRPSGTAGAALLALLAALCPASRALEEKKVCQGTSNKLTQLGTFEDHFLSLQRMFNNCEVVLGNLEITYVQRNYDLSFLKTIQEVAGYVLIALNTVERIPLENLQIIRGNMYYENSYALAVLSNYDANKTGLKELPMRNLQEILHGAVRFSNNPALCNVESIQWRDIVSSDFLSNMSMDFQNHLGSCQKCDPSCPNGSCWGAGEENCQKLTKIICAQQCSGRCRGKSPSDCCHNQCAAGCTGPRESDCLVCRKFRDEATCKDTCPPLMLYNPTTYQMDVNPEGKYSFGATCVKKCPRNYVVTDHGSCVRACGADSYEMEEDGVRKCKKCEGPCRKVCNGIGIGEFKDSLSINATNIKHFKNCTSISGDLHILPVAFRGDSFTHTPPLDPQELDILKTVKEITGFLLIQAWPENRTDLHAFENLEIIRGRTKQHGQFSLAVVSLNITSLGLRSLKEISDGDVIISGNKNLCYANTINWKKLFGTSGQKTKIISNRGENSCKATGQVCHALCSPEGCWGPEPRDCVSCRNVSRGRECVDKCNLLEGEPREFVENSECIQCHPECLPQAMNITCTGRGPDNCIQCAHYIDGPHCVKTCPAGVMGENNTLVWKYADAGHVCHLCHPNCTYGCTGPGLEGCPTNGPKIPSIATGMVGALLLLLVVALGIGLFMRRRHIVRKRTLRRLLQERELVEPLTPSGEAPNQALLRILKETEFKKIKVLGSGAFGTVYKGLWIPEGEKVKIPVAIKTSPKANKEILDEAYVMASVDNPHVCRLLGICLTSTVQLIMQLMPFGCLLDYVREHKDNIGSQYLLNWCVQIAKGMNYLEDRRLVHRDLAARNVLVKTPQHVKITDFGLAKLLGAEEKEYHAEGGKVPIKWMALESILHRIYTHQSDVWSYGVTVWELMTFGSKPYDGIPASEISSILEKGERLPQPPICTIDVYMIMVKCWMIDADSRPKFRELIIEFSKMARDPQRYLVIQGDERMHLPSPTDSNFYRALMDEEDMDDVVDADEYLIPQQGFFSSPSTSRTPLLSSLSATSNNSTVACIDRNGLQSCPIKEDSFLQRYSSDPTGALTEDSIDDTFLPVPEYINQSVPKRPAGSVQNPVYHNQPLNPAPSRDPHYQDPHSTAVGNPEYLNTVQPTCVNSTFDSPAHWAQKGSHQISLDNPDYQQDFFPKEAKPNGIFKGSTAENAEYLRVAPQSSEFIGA
EGFR L858R, sequence (P00533 25-1210 L858R): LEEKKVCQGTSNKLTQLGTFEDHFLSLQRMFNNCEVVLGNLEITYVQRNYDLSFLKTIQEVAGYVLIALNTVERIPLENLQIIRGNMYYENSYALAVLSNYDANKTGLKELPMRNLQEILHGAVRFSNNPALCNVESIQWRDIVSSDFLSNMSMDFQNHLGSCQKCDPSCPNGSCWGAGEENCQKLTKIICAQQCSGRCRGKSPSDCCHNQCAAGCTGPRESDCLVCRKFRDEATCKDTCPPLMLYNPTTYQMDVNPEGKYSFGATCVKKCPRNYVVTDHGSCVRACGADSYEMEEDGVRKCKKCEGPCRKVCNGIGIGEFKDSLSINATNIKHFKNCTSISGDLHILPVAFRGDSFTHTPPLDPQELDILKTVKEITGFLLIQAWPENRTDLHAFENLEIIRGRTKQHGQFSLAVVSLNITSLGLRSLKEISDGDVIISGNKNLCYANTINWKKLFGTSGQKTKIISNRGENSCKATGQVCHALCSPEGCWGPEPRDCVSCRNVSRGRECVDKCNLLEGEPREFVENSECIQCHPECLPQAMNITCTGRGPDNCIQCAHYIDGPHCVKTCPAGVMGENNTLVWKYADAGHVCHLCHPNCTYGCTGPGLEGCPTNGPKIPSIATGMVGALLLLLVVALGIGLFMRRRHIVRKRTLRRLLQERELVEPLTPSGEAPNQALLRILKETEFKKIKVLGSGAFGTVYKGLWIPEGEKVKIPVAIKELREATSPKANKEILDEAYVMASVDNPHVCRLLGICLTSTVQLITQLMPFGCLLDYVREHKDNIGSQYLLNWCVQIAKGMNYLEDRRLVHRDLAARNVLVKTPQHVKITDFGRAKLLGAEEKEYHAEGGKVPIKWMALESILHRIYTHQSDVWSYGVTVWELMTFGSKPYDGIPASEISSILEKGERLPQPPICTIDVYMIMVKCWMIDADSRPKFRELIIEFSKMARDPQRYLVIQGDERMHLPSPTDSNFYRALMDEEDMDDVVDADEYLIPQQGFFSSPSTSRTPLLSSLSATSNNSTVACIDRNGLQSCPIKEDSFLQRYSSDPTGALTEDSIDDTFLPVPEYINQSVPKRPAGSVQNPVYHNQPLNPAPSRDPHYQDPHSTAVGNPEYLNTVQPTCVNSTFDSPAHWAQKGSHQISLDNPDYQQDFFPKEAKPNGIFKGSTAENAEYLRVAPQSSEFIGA

Compound	IC50 (EGFR L858R)	IC50 (EGFR L858R/T790M)	GI50 [1]	GI50 [2]	IC50 [3]	IC50 [4]
C=CC(=O)Nc1ccc(OC)c(Nc2ncc(Cl)c(Nc3ccc(OCCN4CCCCC4)cc3P(C)(C)=O)n2)c1 [Example 108, N-(3-((5-chloro-4-((2-(dimethylphosphoryl)-4-(2-(piperidin-1-yl)ethoxy)phenyl)amino)pyrimidin-2-yl)amino)-4-methoxyphenyl)acrylamide]	< 0.05 µM	< 0.05 µM	< 0.05 µM	< 0.05 µM	< 0.05 µM	≥ 0.25 µM
CNC(=O)/C=C/C(=O)Nc1ccc(OC)c(Nc2ncc(Cl)c(Nc3ccccc3P(C)(C)=O)n2)c1 [Example 109, N1-(3-((5-chloro-4-((2-(dimethylphosphoryl)phenyl)amino)pyrimidin-2-yl)amino)-4-methoxyphenyl)-N4-methylfumaramide]	< 0.05 µM	< 0.05 µM	0.05 to 0.1 µM	0.101 to 0.25 µM	≥ 0.25 µM	≥ 0.25 µM
CNC(=O)/C=C\C(=O)Nc1ccc(OC)c(Nc2ncc(Cl)c(Nc3ccccc3P(C)(C)=O)n2)c1 [Example 110, N1-(3-((5-chloro-4-((2-(dimethylphosphoryl)phenyl)amino)pyrimidin-2-yl)amino)-4-methoxyphenyl)-N4-methylmaleamide]	< 0.05 µM	< 0.05 µM	< 0.05 µM	0.101 to 0.25 µM	≥ 0.25 µM	≥ 0.25 µM
COCC#CC(=O)Nc1cc(Nc2ncc(Cl)c(Nc3ccccc3P(C)(C)=O)n2)c(OC)cc1N1CCC(N(C)C)C1 (stereo not drawn) [Example 111, N-(5-((5-chloro-4-((2-(dimethylphosphoryl)phenyl)amino)pyrimidin-2-yl)amino)-2-(3-(dimethylamino)pyrrolidin-1-yl)-4-methoxyphenyl)-4-methoxybut-2-ynamide]	< 0.05 µM	< 0.05 µM	< 0.05 µM	< 0.05 µM	< 0.05 µM	≥ 0.25 µM
CC#CC(=O)Nc1cc(Nc2ncc(Cl)c(Nc3ccccc3P(C)(C)=O)n2)c(OC)cc1N1CCC(N(C)C)C1 (stereo not drawn) [Example 112, N-(5-((5-chloro-4-((2-(dimethylphosphoryl)phenyl)amino)pyrimidin-2-yl)amino)-2-(3-(dimethylamino)pyrrolidin-1-yl)-4-methoxyphenyl)but-2-ynamide]	< 0.05 µM	< 0.05 µM	< 0.05 µM	0.05 to 0.1 µM	< 0.05 µM	≥ 0.25 µM
COc1cc(N2CCOCC2)c(NC(=O)C#CCCN(C)C)cc1Nc1ncc(Cl)c(Nc2ccccc2P(C)(C)=O)n1 [Example 114, N-(5-((5-chloro-4-((2-(dimethylphosphoryl)phenyl)amino)pyrimidin-2-yl)amino)-4-methoxy-2-morpholinophenyl)-5-(dimethylamino)pent-2-ynamide]	< 0.05 µM	< 0.05 µM	< 0.05 µM	< 0.05 µM	< 0.05 µM	≥ 0.25 µM
COCCC#CC(=O)Nc1cc(Nc2ncc(Cl)c(Nc3ccccc3P(C)(C)=O)n2)c(OC)cc1N1CCOCC1 [Example 115, N-(5-((5-chloro-4-((2-(dimethylphosphoryl)phenyl)amino)pyrimidin-2-yl)amino)-4-methoxy-2-morpholinophenyl)-5-methoxypent-2-ynamide]	< 0.05 µM	< 0.05 µM	< 0.05 µM	< 0.05 µM	< 0.05 µM	≥ 0.25 µM
C=CC(=O)Nc1cc(Nc2ncc(Cl)c(Nc3ccccc3P(C)(C)=O)n2)c(OC)cc1C#CC(C)(C)N1CCCC1 [Example 116, N-(5-((5-chloro-4-((2-(dimethylphosphoryl)phenyl)amino)pyrimidin-2-yl)amino)-4-methoxy-2-(3-methyl-3-(pyrrolidin-1-yl)but-1-yn-1-yl)phenyl)acrylamide]	< 0.05 µM	< 0.05 µM	< 0.05 µM	< 0.05 µM	0.05 to 0.1 µM	≥ 0.25 µM
C=CC(=O)Nc1ccc(OCCN(C)C)c(Nc2ncc(Cl)c(Nc3ccccc3P(C)(C)=O)n2)c1 [Example 117, N-(3-((5-chloro-4-((2-(dimethylphosphoryl)phenyl)amino)pyrimidin-2-yl)amino)-4-(2-(dimethylamino)ethoxy)phenyl)acrylamide]	≥ 0.25 µM	≥ 0.25 µM	≥ 0.25 µM	≥ 0.25 µM	≥ 0.25 µM	≥ 0.25 µM
COc1cc(N2CCOCC2)c(NC(=O)C#CCCN2CCN(C)CC2)cc1Nc1ncc(Cl)c(Nc2ccccc2P(C)(C)=O)n1 [Example 118, N-(5-((5-chloro-4-((2-(dimethylphosphoryl)phenyl)amino)pyrimidin-2-yl)amino)-4-methoxy-2-morpholinophenyl)-5-(4-methylpiperazin-1-yl)pent-2-ynamide]	< 0.05 µM	< 0.05 µM	< 0.05 µM	< 0.05 µM	< 0.05 µM	≥ 0.25 µM
COc1cc(N2CCCC2)c(NC(=O)C#CCCN2CCN(C)CC2)cc1Nc1ncc(Cl)c(Nc2ccccc2P(C)(C)=O)n1 [Example 119, N-(5-((5-chloro-4-((2-(dimethylphosphoryl)phenyl)amino)pyrimidin-2-yl)amino)-4-methoxy-2-(pyrrolidin-1-yl)phenyl)-5-(4-methylpiperazin-1-yl)pent-2-ynamide]	< 0.05 µM	< 0.05 µM	0.101 to 0.25 µM	0.101 to 0.25 µM	< 0.05 µM	≥ 0.25 µM
C=CC(=O)Nc1cc(Nc2ncc(C3CC3)c(Nc3ccccc3P(C)(C)=O)n2)c(OC)cc1N(C)CCN(CC)CC [Example 120, N-(5-((5-cyclopropyl-4-((2-(dimethylphosphoryl)phenyl)amino)pyrimidin-2-yl)amino)-2-((2-(diethylamino)ethyl)(methyl)amino)-4-methoxyphenyl)acrylamide]	< 0.05 µM	< 0.05 µM	< 0.05 µM	< 0.05 µM	< 0.05 µM	≥ 0.25 µM
C=CC(=O)Nc1cc(Nc2ncc(Cl)c(Nc3ccccc3P(C)(C)=O)n2)c(OC)cc1OC(CF)CN(CC)CC (stereo not drawn) [Example 121, N-(5-((5-chloro-4-((2-(dimethylphosphoryl)phenyl)amino)pyrimidin-2-yl)amino)-2-((1-(diethylamino)-3-fluoropropan-2-yl)oxy)-4-methoxyphenyl)acrylamide]	< 0.05 µM	< 0.05 µM	< 0.05 µM	< 0.05 µM	< 0.05 µM	≥ 0.25 µM
COCC1CCCN1CCC#CC(=O)Nc1cc(Nc2ncc(Cl)c(Nc3ccccc3P(C)(C)=O)n2)c(OC)cc1N1CCOCC1 (stereo not drawn) [Example 122, N-(5-((5-chloro-4-((2-(dimethylphosphoryl)phenyl)amino)pyrimidin-2-yl)amino)-4-methoxy-2-morpholinophenyl)-5-(2-(methoxymethyl)pyrrolidin-1-yl)pent-2-ynamide]	< 0.05 µM	< 0.05 µM	< 0.05 µM	< 0.05 µM	< 0.05 µM	≥ 0.25 µM
C=CC(=O)Nc1cc(Nc2ncc(Cl)c(Nc3ccccc3P(C)(C)=O)n2)c(OC)cc1OC1CCCN(CCOC)C1 (stereo not drawn) [Example 123, N-(5-((5-chloro-4-((2-(dimethylphosphoryl)phenyl)amino)pyrimidin-2-yl)amino)-4-methoxy-2-((1-(2-methoxyethyl)piperidin-3-yl)oxy)phenyl)acrylamide]	< 0.05 µM	< 0.05 µM	< 0.05 µM	< 0.05 µM	< 0.05 µM	≥ 0.25 µM
C=CC(=O)Nc1cc(Nc2ncc(Cl)c(Nc3ccccc3P(C)(C)=O)n2)c(OC)cc1C#CCN(C)C [Example 124, N-(5-((5-chloro-4-((2-(dimethylphosphoryl)phenyl)amino)pyrimidin-2-yl)amino)-2-(3-(dimethylamino)prop-1-yn-1-yl)-4-methoxyphenyl)acrylamide]	< 0.05 µM	< 0.05 µM	< 0.05 µM	< 0.05 µM	< 0.05 µM	≥ 0.25 µM
C=CC(=O)Nc1ccc(OC)c(Nc2ncc(Cl)c(Nc3ccc(OCCN(C)C)cc3P(C)(C)=O)n2)c1 [Example 125, N-(3-((5-chloro-4-((4-(2-(dimethylamino)ethoxy)-2-(dimethylphosphoryl)phenyl)amino)pyrimidin-2-yl)amino)-4-methoxyphenyl)acrylamide]	< 0.05 µM	< 0.05 µM	< 0.05 µM	< 0.05 µM	< 0.05 µM	≥ 0.25 µM
